Reference: ChEMBL document CHEMBL1201862, “PubChem BioAssay data set” (2004)
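Assay format: 96-well plates, 48-hour exposure. Here, GI50 denotes the concentration required for 50% inhibition of growth.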 Activity calls are given as the source filed them. No stated cut-off is given here; in the data, active = GI50 up to about 1.1 µM and inactive = higher.

Assays:
Assay in all cases: DTP human tumour cell line panel, 48 h
SN12C = tested on: SN12C
MDA-MB-435 = tested on: MDA-MB-435
HT-29 = tested on: HT-29
HL-60 = tested on: HL-60
NCI-H460 = tested on: NCI-H460
HOP-62 = tested on: HOP-62
RPMI-8226 = tested on: RPMI-8226
K562 = tested on: K562
BT-549 = tested on: BT-549
A498 = tested on: A498
SNB-19 = tested on: SNB-19
SW-620 = tested on: SW-620
EKVX = tested on: EKVX
CAKI-1 = tested on: CAKI-1
T47D = tested on: T47D
SK-MEL-2 = tested on: SK-MEL-2
SK-OV-3 = tested on: SK-OV-3
OVCAR-3 = tested on: OVCAR-3
CCRF-CEM = tested on: CCRF-CEM

Row | SMILES | GI50 (SN12C) | GI50 (MDA-MB-435) | GI50 (HT-29) | GI50 (HL-60) | GI50 (NCI-H460) | GI50 (HOP-62) | GI50 (RPMI-8226) | GI50 (K562) | GI50 (BT-549) | GI50 (A498) | GI50 (SNB-19) | GI50 (SW-620) | GI50 (EKVX) | GI50 (CAKI-1) | GI50 (T47D) | GI50 (SK-MEL-2) | GI50 (SK-OV-3) | GI50 (OVCAR-3) | GI50 (CCRF-CEM)
1 | O=C(O)C1CCN(Cc2oc(CO)cc(=O)c2O)C1 (configuration not stated) | > 100 µM (inactive) | > 100 µM (inactive) | > 100 µM (inactive) | > 100 µM (inactive) | > 100 µM (inactive) | > 100 µM (inactive) | > 100 µM (inactive) | > 100 µM (inactive) | > 100 µM (inactive) | > 100 µM (inactive) | > 100 µM (inactive) | > 100 µM (inactive) | > 100 µM (inactive) | > 100 µM (inactive) | > 100 µM (inactive) | > 100 µM (inactive) | > 100 µM (inactive) | > 100 µM (inactive) | > 100 µM (inactive)
2 | COc1nncc2[nH]c(-c3ccccc3)cc12 | 40.9 µM (inactive) | 73.3 µM (inactive) | > 100 µM (inactive) | 30.9 µM (inactive) | 64.6 µM (inactive) | > 100 µM (inactive) | 46.9 µM (inactive) | 56.6 µM (inactive) | 40.5 µM (inactive) | 22.3 µM (inactive) | > 100 µM (inactive) | > 100 µM (inactive) | 29.4 µM (inactive) | 96.8 µM (inactive) | 40.9 µM (inactive) | 33.9 µM (inactive) | > 100 µM (inactive) | 83.2 µM (inactive) | 44.9 µM (inactive)
3 | O=CC(O)C(O)C(O)C(O)COC(=O)NCCCCC(=O)C(F)(F)C(F)(F)C(F)(F)C(F)(F)C(F)(F)C(F)(F)C(F)(F)F (configuration not stated) | 32.4 µM (inactive) | 24.2 µM (inactive) | 32.7 µM (inactive) | 27.4 µM (inactive) | 26.9 µM (inactive) | 23.6 µM (inactive) | 29.9 µM (inactive) | 11.8 µM (inactive) | 16.1 µM (inactive) | 20.7 µM (inactive) | 16 µM (inactive) | 19.9 µM (inactive) | – | 49.8 µM (inactive) | > 100 µM (inactive) | 27.6 µM (inactive) | 21.7 µM (inactive) | 47 µM (inactive) | 18.4 µM (inactive)
4 | CC(=O)N1c2ccccc2[C@H]2CCc3c([nH]c4ccccc34)[C@H]21 | 13.7 µM (inactive) | 16.7 µM (inactive) | 8.11 µM (inactive) | 12.4 µM (inactive) | 8.39 µM (inactive) | 12.6 µM (inactive) | 6.27 µM (inactive) | 8.57 µM (inactive) | 11 µM (inactive) | 17.5 µM (inactive) | 24.3 µM (inactive) | 12 µM (inactive) | 14.5 µM (inactive) | 15.6 µM (inactive) | 18.7 µM (inactive) | 19.2 µM (inactive) | 28.3 µM (inactive) | 15.4 µM (inactive) | 11.6 µM (inactive)
5 | CC12CC(c3ccccc3O1)C(C(=O)Nc1ccc(F)cc1)C(=O)N2 (configuration not stated) | – | > 100 µM (inactive) | 89.9 µM (inactive) | 29.6 µM (inactive) | 89.7 µM (inactive) | > 100 µM (inactive) | 40.3 µM (inactive) | 47.9 µM (inactive) | 38.5 µM (inactive) | > 100 µM (inactive) | > 100 µM (inactive) | > 100 µM (inactive) | 45.2 µM (inactive) | > 100 µM (inactive) | 33.5 µM (inactive) | > 100 µM (inactive) | > 100 µM (inactive) | > 100 µM (inactive) | 28.2 µM (inactive)
6 | Brc1ccc(CCNCCN2CCCCC2)cc1 | 25.9 µM (inactive) | 5.47 µM (inactive) | 4 µM (inactive) | 33 µM (inactive) | 14.7 µM (inactive) | 20.4 µM (inactive) | 37.7 µM (inactive) | 4.1 µM (inactive) | 15.7 µM (inactive) | 18 µM (inactive) | 17.3 µM (inactive) | 17 µM (inactive) | 33.1 µM (inactive) | 14.1 µM (inactive) | 15.6 µM (inactive) | 19.4 µM (inactive) | 21.2 µM (inactive) | 15.4 µM (inactive) | 14.2 µM (inactive)
7 | COc1ccc([N+](=O)[O-])c2c(NCCCN(C)C)ccnc12 | 7.29 µM (inactive) | 9.1 µM (inactive) | 3.66 µM (inactive) | 5.14 µM (inactive) | 2.34 µM (inactive) | 3.66 µM (inactive) | 1.65 µM (inactive) | 1.77 µM (inactive) | 2.21 µM (inactive) | 2.33 µM (inactive) | 8.3 µM (inactive) | 4.7 µM (inactive) | 4.92 µM (inactive) | 8.39 µM (inactive) | 3.52 µM (inactive) | 2.05 µM (inactive) | 11.2 µM (inactive) | 2.39 µM (inactive) | 15 µM (inactive)
8 | COc1ccc(C2C3=C(COC3=O)OC(C)(C)Oc3cc4c(cc32)OCO4)cc1 (configuration not stated) | 37 µM (inactive) | 3.51 µM (inactive) | 24.4 µM (inactive) | 12 µM (inactive) | 26.7 µM (inactive) | 23.6 µM (inactive) | 34.1 µM (inactive) | 5.13 µM (inactive) | 16.9 µM (inactive) | 22.8 µM (inactive) | 45.3 µM (inactive) | 21.8 µM (inactive) | 35.5 µM (inactive) | 24.1 µM (inactive) | 26.3 µM (inactive) | 37.8 µM (inactive) | 50.1 µM (inactive) | 36.6 µM (inactive) | 22.4 µM (inactive)
9 | O=C(N/N=C\c1ccc(Cl)cc1)Nc1cccc2ccccc12 | 9.51 µM (inactive) | 2 µM (inactive) | 3.21 µM (inactive) | 4.93 µM (inactive) | 3.24 µM (inactive) | 2.01 µM (inactive) | 5.66 µM (inactive) | 3.23 µM (inactive) | 21.7 µM (inactive) | 2.67 µM (inactive) | 2.66 µM (inactive) | 3.41 µM (inactive) | 18.7 µM (inactive) | 2.42 µM (inactive) | 5.52 µM (inactive) | 21.5 µM (inactive) | 2.71 µM (inactive) | 1.54 µM (inactive) | 7.96 µM (inactive)
10 | O=c1cc(/N=N\c2ccc(Cl)cc2)[nH]c(=O)[nH]1 | 3.98 µM (inactive) | 4.84 µM (inactive) | 2.35 µM (inactive) | 1.11 µM (active) | 5.52 µM (inactive) | 7.74 µM (inactive) | 3.19 µM (inactive) | 3.43 µM (inactive) | 3.88 µM (inactive) | > 10 µM (inactive) | 10.3 µM (inactive) | 2.33 µM (inactive) | 4.09 µM (inactive) | 0.923 µM (active) | 3.18 µM (inactive) | 13.3 µM (inactive) | 14.7 µM (inactive) | 4.12 µM (inactive) | 1.44 µM (inactive)
11 | CC(O)CCNC(=O)Nc1c(C(F)(F)F)cc(-c2ccccc2)[nH]c1=O (configuration not stated) | > 100 µM (inactive) | > 100 µM (inactive) | > 100 µM (inactive) | 67.9 µM (inactive) | > 100 µM (inactive) | > 100 µM (inactive) | > 100 µM (inactive) | > 100 µM (inactive) | > 100 µM (inactive) | > 100 µM (inactive) | > 100 µM (inactive) | > 100 µM (inactive) | > 100 µM (inactive) | > 100 µM (inactive) | > 100 µM (inactive) | > 100 µM (inactive) | > 100 µM (inactive) | > 100 µM (inactive) | > 100 µM (inactive)
